Laboratory results reported in publication PMC5717258, “Bioaccumulation of pharmaceuticals and personal care product chemicals in fish exposed to wastewater effluent in an urban wetland” (Scientific Reports, 2017).
Where two headings read alike, the source gives them in different places.

How the values were obtained:
[1] = for plasma concentration, CPM-C 01: Cootes carp 01, 2011, male; for Cootes carp plasma, range of concentrations: Cootes Paradise Marsh; for plasma concentration, carp, this study (mean) / plasma concentration, goldfish, this study (mean): Table S8
Protocol: (§1) Plasma from 9 individual male fish (500 µL/individual) was pooled to yield 3 samples for PPCP analysis. […] Plasma from 6 individual carp (2.3–3.5 g) from each location was selected for PPCP analysis. […] Plasma samples were frozen (−80 °C) until analysis.
(§2) A total of 20 fish plasma samples from the pooled caged fish (7) and the wild fish (13) along with 12 water samples were selected for analysis. […] A full list of analytes is provided in Supplementary Information. Mass labelled^13C-, or deuterated surrogate internal standards were used for quantification of all analytes via the isotope dilution/surrogate standard quantitation method. Prior to extraction and/or clean-up procedures, aqueous samples were adjusted to pH 2.0, spiked with extraction surrogate standards, then adjusted to pH 4 using tetrasodium ethylenediamine-tetraacetate dihydrate. Plasma samples (2.3–2.5 g) were spiked with extraction surrogate standards, sonicated with 20 mL acetonitrile, then diluted with ultra-pure water to 200 mL. The extracts were cleaned up by solid phase extraction using Oasis HLB cartridges (Waters Ltd. Mississauga ON), filtered, and analyzed by liquid chromatography-electrospray ionization-tandem mass spectrometry (LC/ESI-MS/MS) in positive or negative ionization mode. The analysis of the complete list of analytes (SI Table S1) required a total of five instrumental runs.
(§3) Quality assurance steps included analysis of lab blanks for water and plasma along with matrix recovery spikes. […] Detection limits (DLs) were defined as lowest calibration level adjusted to the maximal sample size or 3 times the signal of the noise in the target channel converted to an equivalent sample, whichever was greater. […] Where analytes were detected in two or more samples of the same species or series of water samples, non-detect values were converted to ½ the DL value for reporting purposes.

[2] = Protocol: as §1, §2
[3] = in vivo; conditions: goldfish (Carassius auratus), in vivo, plasma concentration
From the text: Cages were visited weekly, and fish (13/cage) were fed during the visits (20 g/cage). All animal experiments were in accordance with CCAC guidance and approved by the GLLFAS-WSTD Animal Care Committee (Government of Canada). Further details on the caging and preparation of the fish and animal care protocols are provided in Simmons et al.[32]. […] A fourth site, Jordan Harbour (JH), a widening of 20 Mile Creek adjacent to Lake Ontario near Jordan ON, served as a reference site. Mass and fork length were measured and recorded. Plasma collection and storage is described in the SI. Plasma of caged goldfish was divided for proteome, metabolome and PPCP analysis. Due to limited volumes, pooled samples of plasma from 25 individual fish (50 µL/individual) was pooled to yield one sample from at each location for PPCP analysis.
as §2, §3

[4] = cited from earlier work
[5] = design: method as in US EPA Chemistry Dashboard; conditions: ref US EPA Chemistry Dashboard; cited from earlier work
[6] = ref Meador et al. 18; cited from earlier work
[7] = cited from earlier work; for whole fish concentration, salmon: ref Meador et al. 18
[8] = human; converted from µg/mL; ref Schulz et al.[56]; cited from earlier work
[9] = female, carp (Cyprinus carpio), in vivo
[10] = male, carp (Cyprinus carpio), in vivo
[11] = male, goldfish (Carassius auratus), in vivo
[12] = Cootes carp 2, Sep 27, 2011, male, wet weight
[13] = Cootes carp 10, Sep 28, 2011, female, wet weight
[14] = Cootes carp 13, Sep 28, 2011, female, wet weight
[15] = Cootes carp 20, 2011, male, wet weight
[16] = Cootes carp 36, Oct 3, 2011, female, wet weight
[17] = Jordan Harbour brown bullhead, wet weight

| plasma concentration, CPM-C 01 ([1]; wet weight) | plasma concentration, CPM-C 2 [1, 12] | plasma concentration, CPM-C 10 [1, 13] | plasma concentration, CPM-C 13 [1, 14] | plasma concentration, CPM-C 20 [1, 15] | plasma concentration, CPM-C 36 [1, 16] | Carp plasma concentration, this study (range) ([1]; Table S7) | Structure (SMILES) | plasma concentration, JH-BB [2, 17] | Cootes carp plasma, range of concentrations [1] | plasma concentration, carp, this study (mean) [1] | plasma concentration, goldfish, this study (mean) [1] | log Kow [5] | whole fish concentration, sculpin [6] | whole fish concentration, salmon [7] | further results |
| --- | --- | --- | --- | --- | --- | --- | --- | --- | --- | --- | --- | --- | --- | --- | --- |
| – | – | – | – | – | – | – | C[C@]12CCC(=O)C=C1CC[C@@H]1[C@@H]2[C@@H](O)C[C@@]2(C)[C@H]1CC[C@]2(O)C(=O)CO [Hydrocortisone] | – | – | – | – | – | – | – | plasma concentration, CPM-C 10 [1, 9]: 764 ng/g; plasma concentration, CPM-C 13 [1, 9]: 1010 ng/g; plasma concentration, CPM-C 36 [1, 9]: 875 ng/g; plasma concentration, JH-C 73 [1, 9]: 456 ng/g; plasma concentration, JH-C 75 [1, 9]: 1440 ng/g; plasma concentration, CPM-C 2 [1, 10]: 1010 ng/g; plasma concentration, CPM-C 20 [1, 10]: 210 ng/g; plasma concentration, JH-C 54 [1, 10]: 232 ng/g; plasma concentration, JH-C 74 [1, 10]: 242 ng/g; plasma concentration, JH-C 78 [1, 10]: 522 ng/g; plasma concentration, CPM wild-01 [1, 11]: 129 ng/g; plasma concentration, CPM wild-02 [1, 11]: 134 ng/g; plasma concentration, CPM wild-03 [1, 11]: 118 ng/g; plasma concentration, JH-BB ([2]; Brown Bullhead (Ameiurus nebulosus), in vivo): 187 ng/g; concentration at 21 days ([3]; CPM1 caged): 100 ng/g; concentration at 21 days ([3]; CPM2 caged): 107 ng/g; concentration at 21 days ([3]; CPM3 caged): 113 ng/g; concentration at 21 days ([3]; JH caged): 92.4 ng/g |
| 0.338 ng/g | 0.216 ng/g | 0.227 ng/g | 0.234 ng/g | 0.179 ng/g | 0.215 ng/g | 0.18 to 0.34 ng/g | NCCC(Oc1ccc(C(F)(F)F)cc1)c1ccccc1 (stereo not drawn) [Norfluoxetine] | < 0.57 ng/g | – | – | – | – | – | – | Goldfish plasma concentration, this study (range) ([1]; Table S7): 0.17 to 1.1 ng/g; plasma concentration, CPM wild-01 ([1]; wild goldfish sample 01, 2012, wet weight): 0.300 ng/g; plasma concentration, CPM wild-02 ([1]; wild goldfish sample 02, 2012, wet weight): 0.654 ng/g; plasma concentration, CPM wild-03 ([1]; wild goldfish sample 03, 2012, wet weight): 1.1 ng/g; concentration at 21 days ([3]; CPM1 caged, CPM1, 07-2014, pooled plasma, wet weight): 0.879 ng/g; concentration at 21 days ([3]; CPM2 caged, CPM2, 07-2014, pooled plasma, wet weight): 0.58 ng/g; concentration at 21 days ([3]; CPM3 caged, CPM3, 07-2014, pooled plasma, wet weight): 0.168 ng/g; concentration at 21 days ([3]; JH caged, Jordan Harbour reference site, 07-2014, pooled plasma, wet weight): < 0.413 ng/g |
| 0.422 ng/g | 1.23 ng/g | 0.605 ng/g | 0.625 ng/g | 0.431 ng/g | 0.570 ng/g | 0.42 to 1.23 ng/g | CCCCC(=O)N(Cc1ccc(-c2ccccc2-c2nnn[nH]2)cc1)[C@H](C(=O)O)C(C)C [Valsartan] | – | 0.42 to 1.23 ng/g | 0.65 ng/g wet weight or ng/mL for plasma | < mdl | 3.07 | < mdl | < mdl | Therapeutic "normal" blood-plasma/serum concentration [8]: ~800 to 6000 ng/mL; plasma concentration, JH-C 75 ([1]; Jordan Harbour carp 75, Nov 7, 2011, female, wet weight): < 1.2 ng/g |

| Structure (SMILES) | plasma concentration, CPM-C 01 ([1]; wet weight) | plasma concentration, CPM-C 2 [1, 12] | plasma concentration, CPM-C 10 [1, 13] | plasma concentration, CPM-C 13 [1, 14] | plasma concentration, CPM-C 20 [1, 15] | plasma concentration, CPM-C 36 [1, 16] | Carp plasma concentration, this study (range) ([1]; Table S7) | plasma concentration, JH-BB [2, 17] | Cootes carp plasma, range of concentrations [1] | plasma concentration, carp, this study (mean) [1] | plasma concentration, goldfish, this study (mean) [1] | log Kow [5] | whole fish concentration, sculpin [6] | whole fish concentration, salmon [7] | further results |
| --- | --- | --- | --- | --- | --- | --- | --- | --- | --- | --- | --- | --- | --- | --- | --- |
| O=C(Nc1ccc(Cl)cc1)Nc1ccc(Cl)c(Cl)c1 [Triclocarban] | 0.317 ng/g | 0.431 ng/g | 0.453 ng/g | 0.468 ng/g | 0.324 ng/g | 3.35 ng/g | 0.32 to 3.35 ng/g | < 1.14 ng/g | 0.32 to 3.35 ng/g | 0.89 ng/g wet weight or ng/mL for plasma | < mdl | 4.90 | < mdl | 6.5 ng/g wet weight or ng/mL for plasma | BAFP in carp plasma, median [4]: 6.9; plasma concentration, crucian carp & common carp ([4]; mean ± SD, ref Tanoue et al.16): 0.34±0.20 ng/g wet weight or ng/mL for plasma; Salmon (whole body) concentration ([7]; Table S7, ref Meador et al. (2016)): 6.5 ng/g |
